Molecular target: human A1 receptor subtype (Homo sapiens, UniProt P30542)
Assay: not given
Settings: Table 15, Adenosine A1 Receptor Selective Compounds

Chain of human A1 receptor subtype (P30542 whole entry): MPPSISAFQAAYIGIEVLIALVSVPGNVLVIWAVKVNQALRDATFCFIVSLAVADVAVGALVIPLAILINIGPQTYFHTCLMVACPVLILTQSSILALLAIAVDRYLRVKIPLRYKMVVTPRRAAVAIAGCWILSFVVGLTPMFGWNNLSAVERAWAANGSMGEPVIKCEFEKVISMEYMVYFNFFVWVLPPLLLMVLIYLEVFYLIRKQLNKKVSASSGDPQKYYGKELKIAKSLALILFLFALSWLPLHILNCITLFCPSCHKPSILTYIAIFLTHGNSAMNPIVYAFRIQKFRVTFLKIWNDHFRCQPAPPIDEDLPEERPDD

Molecule | Ki-A1 (selectivity versus other three subtypes)
O[C@H]1CC[C@H](Nc2nc(-c3ccccc3)nc3[nH]c(CN4CCSCC4)cc23)CC1 [Compound 1504] | * (at least 10 times more selective than other three subtypes.)
CNC(=O)NCCNc1nc(-c2cccc(Cl)c2)nc2[nH]ccc12 [Compound 1502] | * (at least 10 times more selective than other three subtypes.)
CC(=O)NCCNc1nc(-c2ccccc2)nc2[nH]ccc12 [Compound 1501] | * (at least 10 times more selective than other three subtypes.)
O[C@H]1CC[C@H](Nc2nc(-c3ccccc3)nc3[nH]c(CN4CCOCC4)cc23)CC1 [Compound 1503] | * (at least 10 times more selective than other three subtypes.)
CNC(=O)NC1CCCCC1Nc1nc(-c2ccccc2)nc2[nH]c(C)c(C)c12 (stereo not drawn) [Compound 1500] | * (at least 10 times more selective than other three subtypes.)

Same assay, conditions: read-out: Al Binding Ki; Table 6, Effect of N6-Substituent

Molecule | Ki [nM]
Cc1[nH]c2nc(-c3ccccc3)nc(NC3CCC(OC(=O)c4ccccc4)CC3)c2c1C (stereo not drawn) [Compound 611] | 786
Cc1[nH]c2nc(-c3ccccc3)nc(NC3CCC(NS(C)(=O)=O)CC3)c2c1C (stereo not drawn) [Compound 604] | > 10
Cc1[nH]c2nc(-c3ccccc3)nc(N[C@@H]3C[C@@H](O)[C@@H](O)C3)c2c1C [Compound 616] | 34.3

Same assay, conditions: read-out: Al Binding Ki; Table 7, Effect of C2-Substituent

Molecule | Ki [nM]
Cc1[nH]c2nc(-c3ccccc3F)nc(N[C@H]3CC[C@H](O)CC3)c2c1C [Compound 709] | 48.7
Cc1[nH]c2nc(C(C)C)nc(N[C@H]3CC[C@H](O)CC3)c2c1C [Compound 708] | 2140

Same assay, conditions: saturation and competition radio ligand binding

Molecule | A1 receptor binding affinity compared with reference compounds 1318 or 1319
Cc1cc2c(N3CCC[C@H]3C(N)=O)nc(-c3ccccc3)nc2[nH]1 [Compound 1512, 1-(6-methyl-2-phenyl-7H-pyrrolo[2,3-d]pyrimidine-4-yl)-(S)-pyrrolidine-2-carboxylic acid amide] | equaled or surpassed
NC(=O)c1cc2c(NC3CCC(O)CC3)nc(-c3ccccc3)nc2[nH]1 (stereo not drawn) [Compound 1520, 4-(4-Hydroxy-cyclohexylamino)-2-phenyl-7H-pyrrolo[2,3-d]pyrimidine-6-carboxylic acid amide] | equaled or surpassed
OC1CCC(Nc2nc(-c3ccccc3)nc3[nH]c(Cn4ccnc4)cc23)CC1 (stereo not drawn) [Compound 1514, 4-(6-Imidazol-1-ylmethyl-2-phenyl-7H-pyrrolo[2,3-d]pyrimidin-4-ylamino)-cyclohexanol] | equaled or surpassed
NC(=O)[C@@H]1CCCN1c1nc(-c2ccccc2)nc2[nH]ccc12 [Compound 1506] | equaled or surpassed
NC(=O)C1CCCN1c1nc(-c2ccccc2)nc2[nH]c(C(=O)O)cc12 (stereo not drawn) [Compound 1511, [4-(2-Carbamoylpyrrolidin-1-yl)-2-phenyl-7H-pyrrolo[2,3-d]pyrimidine-6-carboxylic acid]] | equaled or surpassed
NC(=O)C1CCCN1c1nc(-c2ccccc2)nc2[nH]c(COCC(=O)O)cc12 (stereo not drawn) [Compound 1519, [4-(2-Carbamoyl-pyrrolidin-1-yl) -2-phenyl-7H-pyrrolo[2,3-d]pyrimidin-6-ylmethoxy]-acetic acid] | equaled or surpassed
COCc1cc2c(N3CCC[C@H]3C(N)=O)nc(-c3ccccc3)nc2[nH]1 [Compound 1507] | equaled or surpassed
1-[6-(4-Hydroxy-4-phenyl-piperidin-1-yl-methyl)-2-phenyl-7H-pyrrolo[2,3-d]pyrimidin-4-yl]-pyrrolidine-2-carboxylic acid amide [Compound 1505] | equaled or surpassed
OCCOCc1cc2c(N[C@H]3CC[C@H](O)CC3)nc(-c3ccccc3)nc2[nH]1 [Compound 1516] | equaled or surpassed
NC(=O)COCc1cc2c(N3CCC[C@H]3C(N)=O)nc(-c3ccccc3)nc2[nH]1 [Compound 1510] | equaled or surpassed
COC(=O)COCc1cc2c(N3CCCC3C(N)=O)nc(-c3ccccc3)nc2[nH]1 (stereo not drawn) [Compound 1518, [4-(2-Carbamoyl-pyrrolidin-1-yl) -2-phenyl-7H-pyrrolo[2,3-d]pyrimidin-6-ylmethoxy]-acetic acid methyl ester] | equaled or surpassed
NC(=O)C1CCCN1c1nc(-c2ccccc2)nc2[nH]c(COCCO)cc12 (stereo not drawn) [Compound 1513, 1-[6-(2-Hydroxy-ethoxymethyl) -2-phenyl-7H-pyrrolo[2,3-d]pyrimidin-4-yl]-pyrrolidine-2-carb oxylic acid amide] | equaled or surpassed
NC(=O)[C@@H]1CCCN1c1nc(-c2ccccc2)nc2[nH]c(CCC(=O)O)cc12 [Compound 1509, 3-[4-((S)-2-Carbamoyl-pyrrolodin-1-yl)-2-phenyl-7H-pyrrolo[2,3-d]pyrimidin-6-yl]-propionic acid] | equaled or surpassed
COC(=O)c1cc2c(NC3CCC(O)CC3)nc(-c3ccccc3)nc2[nH]1 (stereo not drawn) [Compound 1517, 4-(4-Hydroxy-cyclohexylamino) -2-phenyl-7H-pyrrolo[2,3-d]pyrimidine-6-carboxylic acid methyl ester] | equaled or surpassed
NC(=O)C1CC(O)CN1c1nc(-c2ccccc2)nc2[nH]ccc12 (stereo not drawn) [Compound 1508, 4-Hydroxy-1-(2-phenyl-7H-pyrrolo[2,3-d]pyrimidin-4-yl]-pyrrolidine-2-carboxylic acid amide] | equaled or surpassed

Molecular target: T1, human A3 receptor subtype (Homo sapiens, UniProt P0DMS8)
T1 sequence (P0DMS8 1-318): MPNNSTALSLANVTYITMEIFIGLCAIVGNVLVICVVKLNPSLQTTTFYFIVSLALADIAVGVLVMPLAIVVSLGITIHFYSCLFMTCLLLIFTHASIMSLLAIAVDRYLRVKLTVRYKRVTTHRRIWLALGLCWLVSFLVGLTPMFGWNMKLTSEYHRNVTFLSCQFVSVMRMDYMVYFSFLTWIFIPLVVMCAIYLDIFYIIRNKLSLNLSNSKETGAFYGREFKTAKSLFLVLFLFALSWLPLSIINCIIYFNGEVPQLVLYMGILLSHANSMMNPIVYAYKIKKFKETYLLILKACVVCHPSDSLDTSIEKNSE
Assay: Adenosine 3 receptor competition radioligand binding, [125I] AB-MECA, HEK293 membranes
Settings: Table 17, Adenosine A3 Receptor Selective Compounds

Molecule | Ki-A3 (selectivity versus other three subtypes)
OC[C@@H](Nc1nc(-c2ccccc2)nc2[nH]c(COc3cccc(Cl)c3)cc12)c1ccccc1 [Compound 1714] | * (at least 10 times more selective than other three subtypes.)
OCC1CCCN(c2nc(-c3ccccc3)nc3[nH]c(COc4cccc(Cl)c4)cc23)C1 (stereo not drawn) [Compound 1718] | * (at least 10 times more selective than other three subtypes.)
COC(=O)CC1CCN(c2nc(-c3ccccc3)nc3[nH]c(COc4cccc(Cl)c4)cc23)C1 (stereo not drawn) [Compound 1716] | * (at least 10 times more selective than other three subtypes.)
O=C(NCCNc1nc(-c2ccccc2)nc2[nH]ccc12)c1ccc[nH]1 [Compound 1707] | * (at least 10 times more selective than other three subtypes.)
CC(=S)NCCNc1nc(-c2ccccc2)nc2[nH]c(C)c(C)c12 [Compound 1702] | * (at least 10 times more selective than other three subtypes.)
CC(C)C(Nc1nc(-c2ccccc2)nc2[nH]c(-c3ccccc3)cc12)C(N)=O (stereo not drawn) [Compound 1709] | * (at least 10 times more selective than other three subtypes.)
NC(=O)CC1CCN(c2nc(-c3ccccc3)nc3[nH]c(COc4cccc(Cl)c4)cc23)C1 (stereo not drawn) [Compound 1717] | * (at least 10 times more selective than other three subtypes.)
NC(=O)C(Cc1ccccc1)Nc1nc(-c2ccccc2)nc2[nH]c(-c3ccccc3)cc12 (stereo not drawn) [Compound 1710] | * (at least 10 times more selective than other three subtypes.)

Reference: patent EP1731520A1, “Pyrrolo[2,3-d]pyrimidine derivatives which are antagonists of adenosine A1, A2A, and A3” (OSI Pharmaceuticals, Inc., priority 1999, dated 2001)
